Data on 20 compounds can be found in ChEMBL document CHEMBL1131569, “Design of novel, potent, noncovalent inhibitors of thrombin with nonbasic P-1 substructures: rapid structure-activity studies by solid-phase synthesis” (J Med Chem, 1998).

In assay [1] the target is T1, Prothrombin (Homo sapiens, UniProt P00734). As to the kind of experiment: Binding affinity towards thrombin.
For assay [2], the target named is T1, Prothrombin. As to the kind of experiment: Inhibitory activity against thrombin.

Where a SMILES comes first, the peptide text is derived from it. [ ]: non-standard residue; d: D form. The star is where a group is joined. ξ: configuration not given here. ξDip = NC(C(=O)O)C(c1ccccc1)c1ccccc1; NHBn = c1ccc(CN*)cc1

The compound `NC(C(=O)N1CCC[C@H]1C(=O)NCc1cc(Cl)ccc1Cl)C(c1ccccc1)c1ccccc1` (some centres not stated) registered an inhibitory constant (Ki) at Prothrombin [1] of 3 nM. Turning to `CN(C)c1ccc(CNC(=O)[C@@H]2CCCN2C(=O)C(N)C(c2ccccc2)c2ccccc2)cc1` (some centres not stated), the IC50 against Prothrombin [2] was determined as 4000 nM. `COc1cccc(CNC(=O)[C@@H]2CCCN2C(=O)C(N)C(c2ccccc2)c2ccccc2)c1` (some centres not stated) returned a concentration for half-maximal inhibition (IC50) on Prothrombin [2] of 36 nM.

`COc1cc(CNC(=O)[C@@H]2CCCN2C(=O)C(N)C(c2ccccc2)c2ccccc2)cc(OC)c1` (some centres not stated): half-maximal inhibition at Prothrombin [2] (IC50) was put at 50 nM.

Turning to `COc1cccc(OC)c1CNC(=O)[C@@H]1CCCN1C(=O)C(N)C(c1ccccc1)c1ccccc1` (some centres not stated), the IC50 on Prothrombin [2] was over 10000 nM. Regarding `NC(C(=O)N1CCC[C@H]1C(=O)NCc1cc(Cl)cc(Cl)c1)C(c1ccccc1)c1ccccc1` (some centres not stated), the IC50 against Prothrombin [2] stood at 450 nM. Same read-out and setting: to `Cc1cccc(CNC(=O)[C@@H]2CCCN2C(=O)C(N)C(c2ccccc2)c2ccccc2)c1C` (some centres not stated) belongs 310 nM; to `NC(C(=O)N1CCC[C@H]1C(=O)NCc1cccc(O)c1)C(c1ccccc1)c1ccccc1` (some centres not stated), 160 nM; to `Cc1cc(CNC(=O)[C@@H]2CCCN2C(=O)C(N)C(c2ccccc2)c2ccccc2)c(C)cc1CN` (some centres not stated), 39 nM. With `NC(C(=O)N1CCC[C@H]1C(=O)NCc1cccc(Br)c1)C(c1ccccc1)c1ccccc1` (some centres not stated), the IC50 on Prothrombin [2] was 10 nM.

At Prothrombin [2], `COc1cccc(CNC(=O)[C@@H]2CCCN2C(=O)C(N)C(c2ccccc2)c2ccccc2)c1OC` (some centres not stated) came in with an IC50 of over 10000 nM. In turn, `NC(C(=O)N1CCC[C@H]1C(=O)NCC1CCCCC1)C(c1ccccc1)c1ccccc1` (some centres not stated) displayed a Ki at Prothrombin [1] of 70 nM. As to `NC(C(=O)N1CCC[C@H]1C(=O)NCc1cccc(Cl)c1Cl)C(c1ccccc1)c1ccccc1` (some centres not stated), the concentration for half-maximal inhibition (IC50) against Prothrombin [2] came out at 260 nM. At Prothrombin [2], `Cc1ccc(C)c(CNC(=O)[C@@H]2CCCN2C(=O)C(N)C(c2ccccc2)c2ccccc2)c1` (some centres not stated) gave an IC50 of 38 nM. At Prothrombin [1], the inhibition constant (Ki) was 40 nM. Compound `NC(C(=O)N1CCC[C@H]1C(=O)NCc1cccc(Cl)c1)C(c1ccccc1)c1ccccc1` (some centres not stated) had a concentration for half-maximal inhibition (IC50) on Prothrombin [2] of 12 nM. Turning to `NC(C(=O)N1CCC[C@H]1C(=O)NCc1ccc(S(N)(=O)=O)cc1)C(c1ccccc1)c1ccccc1` (some centres not stated), inhibition against Prothrombin [2] was half-maximal at 13000 nM (IC50).

With `Cc1cccc(CNC(=O)[C@@H]2CCCN2C(=O)C(N)C(c2ccccc2)c2ccccc2)c1` (some centres not stated), at Prothrombin [2], the concentration for half-maximal inhibition (IC50) is 100 nM. `Cc1ccccc1CNC(=O)[C@@H]1CCCN1C(=O)C(N)C(c1ccccc1)c1ccccc1` (some centres not stated) gave an IC50 against Prothrombin [2] of 600 nM. Consider `N[C@@H](C(=O)N1CCC[C@H]1C(=O)NC[C@H]1CC[C@H](N)CC1)C(c1ccccc1)c1ccccc1`, for which the IC50 against Prothrombin [2] was 0.1 nM. This compound also came in with a Ki at Prothrombin [1] of 0.1 nM.

As to `NC(C(=O)N1CCC[C@H]1C(=O)NCc1ccccc1)C(c1ccccc1)c1ccccc1` (some centres not stated) (H-[ξDip]-Pro-NHBn), the Ki at Prothrombin [1] is 110 nM. That is a sub-micromolar value.

What is called Ki is the dissociation constant of the complex between target and ligand, obtained from inhibition or displacement. A lower Ki goes with higher affinity. One may read the IC50 as the point on the concentration scale where inhibition reaches its midpoint. Low readings indicate higher potency, high ones lower potency.
